Test results from patent US8871753B2, “Macrocyclic compounds and their use as kinase inhibitors” (Incyte Corporation, priority 2008, dated 2014).
Structures can show the parent of a compound that is named as a salt. Where two headings read alike, the source gives them in different places.

Tests used:
Type in all cases: biochemical
[1] = target: T1, human JAK2 (a.a. 828-1132) (Homo sapiens, UniProt O60674); assay: In vitro JAK kinase assay (HTRF, phosphorylation of a biotinylated peptide), JAK2
T1 construct: JAK2 (a.a. 828-1132); His tag (N); made in house; host or cells: insect cells (baculovirus)
T1 sequence (O60674 828-1132): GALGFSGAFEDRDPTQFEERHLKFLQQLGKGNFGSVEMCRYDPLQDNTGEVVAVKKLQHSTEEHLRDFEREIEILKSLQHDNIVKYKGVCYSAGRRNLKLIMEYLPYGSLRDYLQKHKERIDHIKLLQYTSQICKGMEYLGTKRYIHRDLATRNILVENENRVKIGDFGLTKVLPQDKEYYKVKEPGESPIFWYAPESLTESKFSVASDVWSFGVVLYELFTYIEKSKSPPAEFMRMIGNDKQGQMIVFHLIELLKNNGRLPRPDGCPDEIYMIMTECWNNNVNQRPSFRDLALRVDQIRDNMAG
Outline: (§1)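 Kinase reactions ran at room temperature for 1 h with ATP matched per isoform (JAK1 90 μM, JAK2 30 μM, JAK3 3 μM). After an EDTA stop, the phosphorylated biotin-peptide was read by HTRF using Eu-Py20 and SA-APC after 40 min binding.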

[2] = target: T2, human JAK3 (a.a. 781-1124) (Homo sapiens, UniProt P52333); assay: In vitro JAK kinase assay (HTRF, phosphorylation of a biotinylated peptide), JAK3
T2 construct: JAK3 (a.a. 781-1124); His tag (N); made in house; host or cells: insect cells (baculovirus)
T2 sequence (P52333 781-1124): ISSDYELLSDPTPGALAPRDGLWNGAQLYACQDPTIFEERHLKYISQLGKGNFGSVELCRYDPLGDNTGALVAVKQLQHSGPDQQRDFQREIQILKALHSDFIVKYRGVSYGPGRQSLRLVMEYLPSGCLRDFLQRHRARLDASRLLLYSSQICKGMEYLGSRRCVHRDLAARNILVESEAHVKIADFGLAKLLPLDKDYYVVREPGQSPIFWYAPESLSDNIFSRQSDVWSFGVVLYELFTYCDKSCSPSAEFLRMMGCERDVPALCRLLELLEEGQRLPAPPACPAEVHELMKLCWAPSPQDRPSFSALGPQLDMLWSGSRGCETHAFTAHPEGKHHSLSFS
Experimental: The catalytic activity of JAK1, JAK2 or JAK3 was assayed by measuring the phosphorylation of a biotinylated peptide. The phosphorylated peptide was detected by homogenous time resolved fluorescence (HTRF). […] The ATP concentration in the reactions was 90 μM for JAK1, 30 μM for JAK2 and 3 μM for JAK3. Reactions were carried out at room temperature for 1 hr and then stopped with 20 μL 45 mM EDTA, 300 nM SA-APC, 6 nM Eu-Py20 in assay buffer (Perkin Elmer, Boston, Mass.). Binding to the Europium labeled antibody took place for 40 minutes and HTRF signal was measured on a Fusion plate reader (Perkin Elmer, Boston, Mass.).
The catalytic activity of JAK1, JAK2 or JAK3 was assayed by measuring the phosphorylation of a biotinylated peptide. The phosphorylated peptide was detected by homogenous time resolved fluorescence (HTRF). […] Reactions were carried out at room temperature for 1 hr and then stopped with 20 μL 45 mM EDTA, 300 nM SA-APC, 6 nM Eu-Py20 in assay buffer (Perkin Elmer, Boston, Mass.). Binding to the Europium labeled antibody took place for 40 minutes and HTRF signal was measured on a Fusion plate reader (Perkin Elmer, Boston, Mass.).

[3] = target: TYK2 (Homo sapiens, UniProt P29597); assay: TYK2 kinase inhibition (Table A1)
Chain of TYK2 (P29597 whole entry): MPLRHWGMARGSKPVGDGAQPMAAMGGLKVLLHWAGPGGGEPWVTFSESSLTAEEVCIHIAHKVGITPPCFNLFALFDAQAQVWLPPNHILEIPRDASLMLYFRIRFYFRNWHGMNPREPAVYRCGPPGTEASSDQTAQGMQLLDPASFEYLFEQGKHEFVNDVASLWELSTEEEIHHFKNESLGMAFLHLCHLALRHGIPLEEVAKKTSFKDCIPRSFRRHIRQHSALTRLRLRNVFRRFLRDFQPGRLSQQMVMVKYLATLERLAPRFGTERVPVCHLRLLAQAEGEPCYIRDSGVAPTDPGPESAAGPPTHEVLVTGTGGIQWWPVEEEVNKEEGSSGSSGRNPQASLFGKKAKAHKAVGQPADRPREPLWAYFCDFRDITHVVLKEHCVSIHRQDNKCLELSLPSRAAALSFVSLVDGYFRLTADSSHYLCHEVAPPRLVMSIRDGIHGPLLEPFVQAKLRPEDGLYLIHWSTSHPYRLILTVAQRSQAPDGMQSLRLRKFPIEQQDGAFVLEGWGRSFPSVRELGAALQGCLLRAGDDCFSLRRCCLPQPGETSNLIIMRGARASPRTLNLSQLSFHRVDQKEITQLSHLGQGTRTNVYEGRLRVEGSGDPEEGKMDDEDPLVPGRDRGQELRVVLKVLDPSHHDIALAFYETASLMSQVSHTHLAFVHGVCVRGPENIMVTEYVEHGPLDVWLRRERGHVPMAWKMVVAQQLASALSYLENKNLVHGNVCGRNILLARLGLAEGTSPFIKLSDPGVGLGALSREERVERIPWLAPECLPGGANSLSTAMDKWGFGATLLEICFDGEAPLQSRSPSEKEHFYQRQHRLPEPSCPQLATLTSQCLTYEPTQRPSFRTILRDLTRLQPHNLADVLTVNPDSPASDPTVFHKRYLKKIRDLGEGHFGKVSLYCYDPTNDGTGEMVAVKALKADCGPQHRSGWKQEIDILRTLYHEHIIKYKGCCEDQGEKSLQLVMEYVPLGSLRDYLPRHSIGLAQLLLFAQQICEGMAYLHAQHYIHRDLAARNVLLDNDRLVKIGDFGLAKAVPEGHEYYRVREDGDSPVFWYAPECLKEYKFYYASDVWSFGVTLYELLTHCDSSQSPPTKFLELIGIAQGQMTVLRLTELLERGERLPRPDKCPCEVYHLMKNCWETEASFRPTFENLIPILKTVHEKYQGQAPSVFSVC

[4] = target: T3, human JAK1 (a.a. 837-1142) (Homo sapiens, UniProt P23458); assay: In vitro JAK kinase assay (HTRF, phosphorylation of a biotinylated peptide), JAK1; settings: read-out: JAK1 IC50
T3 construct: human JAK1 (a.a. 837-1142); His tag (N); made in house; host or cells: insect cells (baculovirus)
T3 sequence (P23458 849-1154): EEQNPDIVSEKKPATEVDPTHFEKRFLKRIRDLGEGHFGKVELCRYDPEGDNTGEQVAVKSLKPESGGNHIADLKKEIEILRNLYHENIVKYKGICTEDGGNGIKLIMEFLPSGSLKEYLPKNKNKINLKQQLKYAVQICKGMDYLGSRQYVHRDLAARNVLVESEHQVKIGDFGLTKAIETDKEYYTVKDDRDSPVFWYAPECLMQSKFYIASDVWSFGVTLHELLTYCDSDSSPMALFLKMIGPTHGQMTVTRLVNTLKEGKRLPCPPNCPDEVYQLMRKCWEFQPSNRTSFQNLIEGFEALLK
Outline: as §1

Structure (SMILES)	IC50 ([1]; method AA1 (30 μM ATP) or AA2 (1000 μM ATP), not stated per value)	IC50 ([2]; method AA1 (3 μM ATP) or AA2 (1000 μM ATP), not stated per value)	IC50 [3]	IC50 ([4]; method AA1 (90 μM ATP) or AA2 (1000 μM ATP), not stated per value)	IC50 ([1]; Table B1)	IC50 ([2]; Table B1)	IC50 ([3]; Table B1)	IC50 ([4]; Table B1)	IC50 [1]	IC50 [2]	IC50 [4]
O=C(CC1CCN(c2nc3cccnc3o2)CC1)Nc1ccc2cc1CCc1cccc(c1)Nc1ncc(Cl)c(n1)N2 [Example A126, N-[6-Chloro-2,4,8,22-tetraazatetracyclo[14.3.1.1(3,7).1(9,13)]docosa-1(20),3(22),4,6,9(21),10,12,16,18-nonaen-12-yl]-2-(1-[1,3]oxazolo[5,4-b]pyridin-2-ylpiperidin-4-yl)acetamide bis(trifluoroacetate)]	2.6 nM	34 nM	7.5 nM	0.5 nM	–	–	–	–	–	–	–
O=C(Nc1ccc2cc1CCc1cccc(c1)Nc1ncc(Cl)c(n1)N2)N1CCCC1 [Example B81, N-[6-Chloro-2,4,8,22-tetraazatetracyclo[14.3.1.1(3,7).1(9,13)]docosa-1(20), 3(22),4,6,9(21),10,12,16,18-nonaen-12-yl]pyrrolidine-1-carboxamide trifluoroacetate]	–	–	–	–	123 nM	475 nM	221 nM	109 nM	–	–	–
O=C(NCc1ccco1)Nc1ccc2cc1CCc1cncc(c1)Nc1ncc(Cl)c(n1)N2 [Example B134, N-[6-Chloro-2,4,8,18,22-pentaazatetracyclo[14.3.1.1(3,7).1(9,13)]docosa-1(20),3(22),4,6,9(21),10,12,16,18-nonaen-12-yl]-N′-(2-furylmethyl)urea bis(trifluoroacetate)]	–	–	–	–	1.7 nM	23 nM	2.8 nM	0.75 nM	–	–	–
Cc1nc(S(=O)(=O)Nc2ccc3cc2CCc2cccc(c2)Nc2ncc(Cl)c(n2)N3)cn1C [Example B151, N-[6-Chloro-2,4,8,22-tetraazatetracyclo[14.3.1.1(3,7).1(9,13)]docosa-1(20),3(22),4,6,9(21),10,12,16,18-nonaen-12-yl]-1,2-dimethyl-1H-imidazole-4-sulfonamide bis(trifluoroacetate)]	–	–	–	–	1.2 nM	36 nM	1.4 nM	2.9 nM	–	–	–
O=C(Nc1cc2cc(c1)Nc1nc(ncc1Cl)Nc1cccc(c1)CC2)C1CCC1 [Example B211, N-[6-Chloro-2,4,8,22-tetraazatetracyclo[14.3.1.1(3,7).1(9,13)]docosa-1(20),3(22),4,6,9(21),10,12,16,18-nonaen-11-yl]cyclobutanecarboxamide trifluoroacetate]	–	–	–	–	20 nM	135 nM	191 nM	56 nM	–	–	–
O=C(c1ccccc1)N1Cc2cccc(c2)Nc2ncc(Cl)c(n2)Nc2cccc1c2 [Example C22, 14-Benzoyl-6-chloro-2,4,8,14,22-pentaazatetracyclo[14.3.1.1(3,7).1(9,13)]docosa-1(20),3(22),4,6,9(21),10,12,16,18-nonaene]	–	–	88 nM	–	–	–	–	–	32 nM	> 400 nM	24 nM
O=C(c1ccccn1)N1Cc2cccc(c2)Nc2ncc(Cl)c(n2)Nc2cccc1c2 [Example C23, 6-Chloro-14-(pyridin-2-ylcarbonyl)-2,4,8,14,22-pentaazatetracyclo[14.3.1.1(3,7).1(9,13)]docosa-1(20),3(22),4,6,9(21),10,12,16,18-nonaene]	–	–	1140 nM	–	–	–	–	–	281 nM	> 10000 nM	162 nM
Cc1ccc(C(=O)N2Cc3cccc(c3)Nc3ncc(Cl)c(n3)Nc3cccc2c3)cc1 [Example C24, 6-Chloro-14-(4-methylbenzoyl)-2,4,8,14,22-pentaazatetracyclo[14.3.1.1(3,7).1(9,13)]docosa-1(20),3(22),4,6,9(21),10,12,16,18-nonaene]	–	–	1030 nM	–	–	–	–	–	154 nM	1200 nM	95 nM
O=C(c1cccs1)N1Cc2cccc(c2)Nc2ncc(Cl)c(n2)Nc2cccc1c2 [Example C25, 6-Chloro-14-(2-thienylcarbonyl)-2,4,8,14,22-pentaazatetracyclo[14.3.1.1(3,7).1(9,13)]docosa-1(20),3(22),4,6,9(21),10,12,16,18-nonaene]	–	–	793 nM	–	–	–	–	–	173 nM	> 10000 nM	91 nM
CCCC(=O)N1Cc2cccc(c2)Nc2ncc(Cl)c(n2)Nc2cccc1c2 [Example C26, 14-Butyryl-6-chloro-2,4,8,14,22-pentaazatetracyclo[14.3.1.1(3,7).1(9,13)]docosa-1(20),3(22),4,6,9(21),10,12,16,18-nonaene]	–	–	1420 nM	–	–	–	–	–	357 nM	> 10000 nM	228 nM
O=C(c1cccnc1)N1Cc2cccc(c2)Nc2ncc(Cl)c(n2)Nc2cccc1c2 [Example C27, 6-Chloro-14-(pyridin-3-ylcarbonyl)-2,4,8,14,22-pentaazatetracyclo[14.3.1.1(3,7).1(9,13)]docosa-1(20),3(22),4,6,9(21),10,12,16,18-nonaene]	–	–	501 nM	–	–	–	–	–	59 nM	1290 nM	43 nM

Further lines, results first:

IC50 ([1]; method AA1 (30 μM ATP) or AA2 (1000 μM ATP), not stated per value)	IC50 ([2]; method AA1 (3 μM ATP) or AA2 (1000 μM ATP), not stated per value)	IC50 [3]	IC50 ([4]; method AA1 (90 μM ATP) or AA2 (1000 μM ATP), not stated per value)	IC50 ([1]; Table B1)	IC50 ([2]; Table B1)	IC50 ([3]; Table B1)	IC50 ([4]; Table B1)	IC50 [1]	IC50 [2]	IC50 [4]	Structure (SMILES)
–	–	> 200 nM	–	–	–	–	–	100 nM	> 200 nM	120 nM	COC(=O)c1ccc2cc1CCc1cncc(c1)Nc1ncc(Cl)c(n1)N2 [Example C28, Methyl 6-chloro-2,4,8,18,22-pentaazatetracyclo[14.3.1.1(3,7).1(9,13)]docosa-1(20),3(22),4,6,9(21),10,12,16,18-nonaene-12-carboxylate]
–	–	227 nM	–	–	–	–	–	68 nM	1030 nM	43 nM	O=C(Cc1c[nH]c2ccccc12)Nc1ccc2cc1CCc1cccc(c1)Nc1ncc(Cl)c(n1)N2 [Example C29, N-[6-Chloro-2,4,8,22-tetraazatetracyclo[14.3.1.1(3,7).1(9,13)]docosa-1(20),3(22),4,6,9(21),10,12,16,18-nonaen-12-yl]-2-(1H-indol-3-yl)acetamide bis(trifluoroacetate)]
–	–	136 nM	–	–	–	–	–	56 nM	990 nM	31 nM	Cc1cc(CC(=O)Nc2ccc3cc2CCc2cccc(c2)Nc2ncc(Cl)c(n2)N3)on1 [Example C30, N-[6-Chloro-2,4,8,22-tetraazatetracyclo[14.3.1.1(3,7).1(9,13)]docosa-1(20),3(22),4,6,9(21),10,12,16,18-nonaen-12-yl]-2-(3-methylisoxazol-5-yl)acetamide trifluoroacetate]
–	–	481 nM	–	–	–	–	–	24 nM	404 nM	140 nM	O=C(Cc1nnn[nH]1)Nc1ccc2cc1CCc1cccc(c1)Nc1ncc(Cl)c(n1)N2 [Example C31, N-[6-Chloro-2,4,8,22-tetraazatetracyclo[14.3.1.1(3,7).1(9,13)]docosa-1(20),3(22),4,6,9(21),10,12,16,18-nonaen-12-yl]-2-(1H-tetrazol-5-yl)acetamide trifluoroacetate]
–	–	44 nM	–	–	–	–	–	20 nM	658 nM	34 nM	O=C(Cc1ccsc1)Nc1ccc2cc1CCc1cccc(c1)Nc1ncc(Cl)c(n1)N2 [Example C32, N-[6-Chloro-2,4,8,22-tetraazatetracyclo[14.3.1.1(3,7).1(9,13)]docosa-1(20),3(22),4,6,9(21),10,12,16,18-nonaen-12-yl]-2-(3-thienyl)acetamide trifluoroacetate]
–	–	217 nM	–	–	–	–	–	35 nM	733 nM	17 nM	O=C(Cc1c[nH]cn1)Nc1ccc2cc1CCc1cccc(c1)Nc1ncc(Cl)c(n1)N2 [Example C33, N-[6-Chloro-2,4,8,22-tetraazatetracyclo[14.3.1.1(3,7).1(9,13)]docosa-1(20),3(22),4,6,9(21),10,12,16,18-nonaen-12-yl]-2-(1H-imidazol-4-yl)acetamide bis(trifluoroacetate)]
–	–	775 nM	–	–	–	–	–	178 nM	4000 nM	265 nM	Cc1[nH]c2ccccc2c1CC(=O)Nc1ccc2cc1CCc1cccc(c1)Nc1ncc(Cl)c(n1)N2 [Example C34, N-[6-Chloro-2,4,8,22-tetraazatetracyclo[14.3.1.1(3,7).1(9,13)]docosa-1(20),3(22),4,6,9(21),10,12,16,18-nonaen-12-yl]-2-(2-methyl-1H-indol-3-yl)acetamide trifluoroacetate]
–	–	549 nM	–	–	–	–	–	203 nM	> 10000 nM	232 nM	O=C(Cc1csc2ccccc12)Nc1ccc2cc1CCc1cccc(c1)Nc1ncc(Cl)c(n1)N2 [Example C35, 2-(1-Benzothien-3-yl)-N-[6-chloro-2,4,8,22-tetraazatetracyclo[14.3.1.1(3,7).1(9,13)]docosa-1(20),3(22),4,6,9(21),10,12,16,18-nonaen-12-yl]acetamide trifluoroacetate]
